Source: the RepoRT retention time repository (doi:10.1038/s41597-019-0305-1)

Test: RP, Waters SunFire C18, 50 × 4.6 mm, 3.5 µm, 0.5 mL/min, estimated dead time 1.1 min; A: water + 0.1% formic acid; B: acetonitrile + 0.1% formic acid; gradient (min/%B) 0/5 7/100 8/100
Details: stereoisomer not certain

Compound | LC retention time
CCCCCC(=O)Cc1cc(OC)cc(O)c1C(=O)Oc1cc(CCCCC)c(C(=O)O)c(OC)c1 | 7.1 min
COc1c(O)c(O)c2c(c1O)C(=O)c1oc(C(C)=O)c(O)c1C2=O | 4.5 min
CCCCCc1cc(OC(=O)c2c(CCCCC)cc(O)cc2OC)cc(OC)c1C(=O)O | 6.6 min
CCCCCc1cc(O)cc(O)c1C(=O)O | 5.24 min
COc1cc(CCC(C(=O)[O-])[N+](C)(C)C)cc(OC)c1O (stereo not drawn) | 6.6 min
O=C1c2cc(O)cc(O)c2C(=O)c2c(O)cc(CO)cc21 | 4.9 min
COC(=O)C(=C1OC(=O)C(c2ccc(OC)cc2)=C1O)c1ccccc1 | 6.71 min
CC1=C(C(=O)O)C(CCCCCCCCCCCCC(C)CO)OC1=O (stereo not drawn) | 6.93 min
CC1CCCCCCCCCCC(O)C(O)C(O)C=CC(=O)O1 (stereo not drawn) | 5.65 min
CCCCCc1cc(OC)cc(O)c1C(=O)O | 6.19 min
CC1CCC2(C(=O)O)CCC3(C)C(=CCC4C5(C)CCC(O)C(C)(C)C5CCC43C)C2C1C (stereo not drawn) | 7.89 min
O=C1OC2=C(c3ccccc3)C(=O)OC2=C1c1ccccc1 | 7.64 min
Cc1cc(O)c(C=O)c(O)c1 | 4.33 min
COC(=O)c1c(C)c(C)c(OC(=O)c2c(C)c(C)c(O)c(C=O)c2O)c(C)c1O | 7.84 min
CC(=O)OCC1OC(Oc2c(C)c(O)c3c(=O)cc(C)oc3c2C)C(O)C(O)C1O (stereo not drawn) | 4.2 min
CC(=O)OCC1OC(Oc2cc3oc(C)cc(=O)c3c(O)c2C)C(OC(C)=O)C(O)C1O (stereo not drawn) | 4.69 min

Compound | LC retention time
CCCCCCCCCCCCCCC(C(=O)OC)C(CC(=O)O)C(=O)O (stereo not drawn) | 8 min
CCCCCC1=CC(=O)C=C(OC)C12C(=O)Oc1cc(O)c(C(=O)O)c(CCCCC)c12 (stereo not drawn) | 7.48 min
COc1cc(C)c2c(c1C=O)Oc1c(c(CO)c(O)c3c1C(O)OC3=O)OC2=O (stereo not drawn) | 4.06 min
CCCCCc1cc(OC)cc(O)c1C(=O)Oc1cc(O)c(C(=O)O)c(CCC)c1 | 7.47 min
CCCCCc1cc2cc(O)cc(O)c2c(=O)o1 | 6.08 min
COC(=O)C(=C1OC(=O)C(c2ccccc2)=C1O)c1ccccc1OC | 6.75 min
CC(=O)OC1C(C)C(C)OC2(C(C)C3OC(=O)C2(C)C(=O)C3C)C1C (stereo not drawn) | 5.84 min
OCC(O)C(O)CO (stereo not drawn) | 4.05 min
CC(C)CC(NC(=O)C(=C1OC(=O)C(c2ccccc2)=C1O)c1ccccc1)C(=O)O (stereo not drawn) | 7.26 min
COc1cc(OC)c2c(=O)cc(C)oc2c1C | 4.51 min
CC(C)CC(NC(=O)c1ccccc1)C(=O)OCC(Cc1ccccc1)NC(=O)c1ccccc1 (stereo not drawn) | 6.82 min
COC(=O)C(Cc1ccccc1)NC(=O)C(=C1OC(=O)C(c2ccccc2)=C1O)c1ccccc1 (stereo not drawn) | 7.65 min
Cc1cc(O)c2c(c1)C(=O)c1c(c(O)cc(O)c1-c1c(C)cc(O)c3c1C(=O)c1cc(O)cc(O)c1C3=O)C2=O | 6.58 min
COC(=O)C(=C1OC(=O)C(c2ccccc2)=C1O)c1ccccc1 | 7.49 min
COc1cc(O)c2c(c1)C(=O)c1cc(CO)cc(O)c1C2=O | 5.36 min

The remaining lines, values ahead:

LC retention time | Compound
4.01 min | Cc1cc(O)c2c(oc3cc(O)c(C(=O)O)c(C)c32)c1C(=O)O
6.54 min | COc1cc(C)c(C(=O)Oc2cc(C)c(C(=O)O)c(O)c2)c(O)c1C
3.95 min | Cc1cc(O)c2c(oc3cc(O)c4c(c32)COC4=O)c1C(=O)O
7.28 min | CC(=O)OCc1c(O)c(C(=O)O)c(C)c2c1OC(=O)c1c(C)cc(O)c(C=O)c1O2
6.53 min | Cc1cc(OC(=O)c2c(C)cc(OC(=O)c3c(C)cc(O)cc3O)cc2O)cc(O)c1C(=O)O
6 min | COc1cc(C)c(C(=O)Oc2cc(C)c(C(=O)O)c(O)c2)c(O)c1
4.72 min | Cc1cc(O)cc2oc3cc(O)c4c(c3c12)COC4=O
6.54 min | CCCCCc1cc(O)cc(OC)c1C(=O)Oc1c(O)cc(CCCCC)c(C(=O)O)c1O
4.65 min | Cc1cc(=O)c2c(O)cc(O)c(C)c2o1
7.09 min | COc1cc(C)c(C(=O)Oc2cc(C)c(C(=O)O)c(O)c2C)c(OC)c1C
5.25 min | CCCc1cc(OC)cc(O)c1C(=O)O
7.14 min | COC(=O)c1c(C)cc(OC(=O)c2c(C)cc(O)c(C=O)c2O)c(C)c1O
7.27 min | CCOCc1c(O)c(C(=O)O)c(C)c2c1OC(=O)c1c(C)cc(O)c(C=O)c1O2
5.7 min | COc1cc(C)c(C(=O)Oc2c(C)cc(O)c(C=O)c2O)c(O)c1C(=O)O
4.69 min | Cc1cc(OC(=O)c2c(C)cc(O)c(O)c2O)cc(O)c1C(=O)O
6.04 min | Cc1cc(O)c(C=O)c2c1C(=O)Oc1c(COC(=O)C=CC(=O)O)c(O)c(C(=O)O)c(C)c1O2
7.33 min | CCCc1cc(OC(=O)c2c(O)cc(OC)cc2CCC)cc(O)c1C(=O)O
5.63 min | Cc1cc(O)c(C)c2c1C(=O)Oc1c(C)c(O)c(C(=O)O)c(C)c1O2
5.79 min | COc1cc(C)c(C(=O)Oc2cc(C)c(C(=O)O)c(O)c2C)c(O)c1C(=O)O
6.62 min | CCCCCC(=O)Cc1cc(O)c(O)c2c1C(=O)Oc1cc(O)c(C(=O)O)c(CCCCC)c1O2
5.62 min | Cc1cc(O)c(C=O)c2c1C(=O)Oc1c(CO)c(O)c(C(=O)O)c(C)c1O2
5.63 min | COC(=O)c1c(OC)cc2oc3c(C(=O)O)c(C)cc(OC)c3c2c1C
5.06 min | O=C(O)c1cc(O)c2c(c1)C(=O)c1cc(O)cc(O)c1C2=O
5.08 min | COc1cc(C(=O)O)c2c(c1C)OC(=O)c1c(C)cc(O)c(C=O)c1O2
3.87 min | Cc1cc(=O)c2c(O)c3c(cc2o1)C(=O)C(=O)C=C3O
5.48 min | COC(=O)c1c(C)cc(O)c(C=O)c1O
7.07 min | Cc1cc(O)c(C=O)c(O)c1C(=O)O
